We go through three compounds from PMC11237399, “Synergistic effects of sulopenem in combination with cefuroxime or durlobactam against Mycobacterium abscessus” (mBio, 2024).

In assay [1] the test system is T1, Mycobacteroides abscessus subsp. abscessus Mab 686.
T1 construct: clinical isolate Mab686
As to the kind of experiment: microbe, parasite or virus in culture. On the set-up: species or system Mycobacterium abscessus clinical isolates; broth microdilution MIC in Middlebrook 7H9 with OADC and Tween 80, 30 C, 3-7 days, visible growth. To be noted: single agent, read-out: MIC50 (μg/ml) Alone. On the procedure: (§1) Minimum inhibitory concentrations (MICs) of sulopenem and CXM were determined using microdilution. Approximately 5 × 10^5 colony-forming units (CFU) per milliliter were inoculated into Middlebrook 7H9 broth supplemented with 10% (vol/vol) oleic albumin dextrose catalase (OADC) and 0.05% (vol/vol) Tween 80. When CXM is combined with sulopenem, the CXM is added at a fixed concentration of 4 µg/mL to serial dilutions of sulopenem. Isolates were incubated with test agents at 30°C for 3–7 days, and MIC was defined as the lowest antibiotic concentration that prevented visible bacterial growth. We use active moiety compounds, like cefuroxime salt, and not cefuroxime axetil. The 54 clinical isolates analyzed in this study were obtained from deidentified patients. To ensure consistency and reliability, we specifically selected isolates from our well-characterized whole genome-sequenced clinical isolates belonging to the Mycobacterium abscessus subspecies abscessus. Of these, 34 isolates were sourced from National Jewish Health, whereas 11 and 9 isolates were obtained from University Hospitals Cleveland Medical Center and Cleveland Metrohealth, respectively. Additionally, ATCC 19977 was acquired from the American Type Culture Collection (ATCC). The active ingredient cefuroxime (CXM) salts and avibactam (AVI) were purchased from AchemBlock, sulopenem was sourced from Iterum Therapeutics, and durlobactam (DUR) was provided from Entasis Therapeutics. All β-lactams and BLIs were prepared in sterile, distilled water or in broth and filter-sterilized with a 0.22 µm PES syringe filter.

The test system of assay [2] is T2, Mycobacteroides abscessus subsp. abscessus Mab 122.
T2 construct: clinical isolate Mab122
Briefly: microbe, parasite or virus in culture. The settings on record: single agent, read-out: MIC50 (μg/ml) Alone. Also noted: species or system Mycobacterium abscessus clinical isolates; broth microdilution MIC in Middlebrook 7H9 with OADC and Tween 80, 30 C, 3-7 days, visible growth. The protocol:
as §1

A further assay addresses T3, LdtMab2 (Mycobacteroides abscessus, UniProt B1MMQ4).
T3 construct: gene MAB_1530; truncated (delta 1-41), pET28a(+), E. coli BL2 (DE3), His tag cut by TEV
T3 sequence (B1MMQ4 42-406): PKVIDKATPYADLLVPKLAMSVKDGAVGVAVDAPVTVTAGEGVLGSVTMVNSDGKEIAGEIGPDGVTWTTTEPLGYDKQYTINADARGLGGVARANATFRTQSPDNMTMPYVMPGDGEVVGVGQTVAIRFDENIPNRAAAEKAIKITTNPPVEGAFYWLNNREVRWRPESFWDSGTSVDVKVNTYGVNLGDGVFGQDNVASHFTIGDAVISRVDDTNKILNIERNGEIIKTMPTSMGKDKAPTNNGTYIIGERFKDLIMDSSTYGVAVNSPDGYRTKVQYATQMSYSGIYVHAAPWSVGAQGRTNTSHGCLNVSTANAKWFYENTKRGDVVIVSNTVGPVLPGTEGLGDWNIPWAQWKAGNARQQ
As to the kind of experiment: intact-protein UPLC-ESI-MS (Q-TOF). It counts as binding. The settings on record: covalent; 1:20 enzyme:ligand, 50 mM Tris-HCl pH 7.5, 300 mM NaCl, room temperature.

For another assay, the target named is T4, PBP B (Mycobacteroides abscessus, UniProt B1MP31).
T4 construct: gene MAB_2000; truncated (delta 1-41), pET28a(+), E. coli BL2 (DE3), His tag cut by TEV
T4 sequence (B1MP31 42-642): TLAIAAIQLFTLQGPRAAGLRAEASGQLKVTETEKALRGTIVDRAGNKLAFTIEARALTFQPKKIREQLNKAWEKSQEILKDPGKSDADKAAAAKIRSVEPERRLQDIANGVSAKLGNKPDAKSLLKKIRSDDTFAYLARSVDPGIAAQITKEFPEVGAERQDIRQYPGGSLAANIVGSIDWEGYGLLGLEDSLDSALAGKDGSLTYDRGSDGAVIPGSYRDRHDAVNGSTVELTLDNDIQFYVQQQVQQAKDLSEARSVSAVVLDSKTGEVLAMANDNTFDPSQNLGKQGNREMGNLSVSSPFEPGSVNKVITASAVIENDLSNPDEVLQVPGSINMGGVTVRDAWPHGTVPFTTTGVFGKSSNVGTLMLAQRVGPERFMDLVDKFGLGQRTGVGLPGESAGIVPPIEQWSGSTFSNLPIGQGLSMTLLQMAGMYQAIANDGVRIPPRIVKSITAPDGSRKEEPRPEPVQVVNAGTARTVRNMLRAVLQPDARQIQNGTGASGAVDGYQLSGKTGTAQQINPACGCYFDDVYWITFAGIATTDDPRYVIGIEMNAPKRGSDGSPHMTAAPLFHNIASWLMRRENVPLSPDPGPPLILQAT
As to the kind of experiment: intact-protein UPLC-ESI-MS (Q-TOF). The settings on record: covalent; 1:20 enzyme:ligand, 50 mM Tris-HCl pH 7.5, 300 mM NaCl, room temperature. It counts as binding.

`NC(=O)[C@@H]1CC[C@@H]2CN1C(=O)N2OS(=O)(=O)O` [avibactam]: the MIC50 in assay [1] and in assay [2] was greater than 128 µg/mL throughout.
For `CO/N=C(\C(=O)N[C@@H]1C(=O)N2C(C(=O)O)=C(COC(N)=O)CS[C@H]12)c1ccco1` [cefuroxime], the “intact-protein UPLC-ESI-MS (Q-TOF)” value is “CXM engaged solely with LdtMab2 and PBP B” at LdtMab2; “CXM engaged solely with LdtMab2 and PBP B” on PBP B. The MIC50 in assay [1] came out at 8 µg/mL; in assay [2] it was 4 µg/mL.
As to `C[C@@H](O)[C@H]1C(=O)N2C(C(=O)O)=C(S[C@H]3CC[S@@+]([O-])C3)S[C@H]12` [sulopenem], the figures for the MIC50 in assay [1] and in assay [2] were 2 µg/mL and 0.5 µg/mL, respectively.
